This is an account of results in PMC3653934, “Identification of Adiponectin Receptor Agonist Utilizing a Fluorescence Polarization Based High Throughput Assay” (PLoS ONE, 2013).

Structures are written as SMILES.

Assay [1] has as its system AMPK phosphorylation (AdipoR1 signaling) in MDA-MB-231 cells. Kind of assay: Western blot of AMPK phosphorylation in MDA-MB-231 cells. It counts as cell-based, human. To be noted: MDA-MB-231 cells treated at IC50 concentration for 6 h. The procedure:
Cells were grown to 80% confluence, harvested and aliquoted into 100 mm dishes in serum free media. Cells were allowed to attach overnight and then the serum free media was removed and then cells were washed in PBS twice. Different doses of compounds were prepared in the normal media and added to different dishes for an additional 6 h. Cells were washed 3 times with ice-cold PBS and cell lysates were prepared by scraping cells into lysis buffer A (RIPA buffer, 2 mM dithiothreitol […], 1×Halt protease inhibitor cocktail (Thermo scientific), and 1×Halt phosphatase inhibitor cocktail (Thermo scientific)). The cells were allowed to swell on ice (5 min), after which the homogenate was centrifuged. The supernatants were transferred to fresh tubes and protein concentrations were determined using the Bio-Rad protein assay (Bio-Rad Laboratories, Inc.) per manufacturer’s instructions. Aliquots of the cell lysates were stored at −80°C.
Equal amounts of total protein (50 µg) were subjected to electrophoresis (10% tris-HCl, 1.0 mm gels) and transferred to nitrocellulose membranes. Membranes were blocked in TBS containing 0.05% Tween 20 (TBST) and 5% nonfat milk or 5% BSA for 1 hour at room temperature. Appropriately diluted primary antibodies were incubated in TBST/5% nonfat milk or TBST/5% BSA for 2 h at room temperature or overnight at 4 °C. Membranes were washed in TBST three times for 15 min each. Appropriately diluted secondary antibodies were incubated in superblock blocking buffers (Thermo Scientific) for 1 h at room temperature. Membranes were washed in TBST three times for 15 min. Proteins were detected by Amersham™ ECL plus western blotting detection system (GE healthcare). The following antibodies were used: anti-AdipoR1 M18, anti-AdipoR2 C12 (Santa Cruz Biotechnology, Santa Cruz, CA), anti-p-AMPKα(T172), anti-AMPKα, and anti-β-actin (Cell Signaling, Danvers, MA).
It is well established that adiponectin activates AMPK and p38 MAPK through AdipoR1 or PPARα through AdipoR2 to mediate its downstream signaling cascades, [9], [12], [14]. […] The levels of phosphorylation of AMPK and phosphorylation of PPARα were examined and the relative expression levels of the phospho-protein to the total expression of protein levels were quantified using ImageJ software (NIH) ( Fig. 3 ).
Figure 3 Effects of hit compounds on adiponectin receptor signaling pathways. […] A total 50 µg of cell lysate was loaded to each lane. Western blot was performed follow the protocol in materials and methods section.
In general terms: In western blotting, separated proteins are transferred to a membrane and probed.

In assay [2] the test system is MDA-MB-231 cells. Kind of assay: Cell viability assay (CellTiter-Blue) in MDA-MB-231 cells. It counts as cell-based. To be noted: Homo sapiens, MDA-MB-231; 72 h, 20 µM to 1.2 nM; read-out: IC50 (µM) MDA-MB-231 cells, cell viability. On the procedure: (§1) All cell lines were obtained from the American Type Culture Collection (ATCC). MCF-7 and MDA-MB-231 cells were maintained in DMEM containing 10% fetal bovine serum and supplied with 1% penicillin/streptomycin. All cells were maintained in a 5% CO2 atmosphere at 37°C.
(§2) The effects of the lead compounds on cell proliferation were tested in MCF-7 and MDA-MB-231 cells. Cells were grown to 80% confluence, harvested and aliquoted into 384-well plates in a total volume of 45 µl per well. The outer wells were inoculated with sterile water to minimize evaporation from the sample wells. Cells were allowed to attach overnight and 5 µl culture media containing either vehicles or drug were added. Cell proliferation was evaluated using CellTilter-Blue reagent (Promega, China) according to manufacturer’s instructions after 72-h incubation. Fluorescence was measured with an excitation at 530 nm and emission at 590 nm. After background subtraction, cell viability values were normalized to vehicle controls and expressed as percentage of the mean of the relative vehicle controls.
(§3) To further confirm the agonistic activity of hit compounds, MDA-MB-231 and MCF-7 cells were treated with different concentrations of g-Ad or drug (20 µM to 1.2 nM) for 72 hours and cell viability was measured. Thus, four compounds (arctiin, (-)-arctigenin, matairesinol and gramine) that show agonistic activity against adiponectin receptor 1 and four compounds (deoxyschizandrin, taxifoliol, syringing and parthenolide) that show agonistic activity against adiponectin receptor 2 were identified.

In assay [3] the test system is MCF-7 cells. Nature of the assay: Cell viability assay (CellTiter-Blue) in MCF-7 cells. To be noted: Homo sapiens, MCF7; 72 h, 20 µM to 1.2 nM; read-out: IC50 (µM) MCF-7 cells, cell viability. It counts as cell-based. On the procedure:
as §1, §2, §3
(In general: The colour change of resazurin is a common sign of viable cells or microbes.)

Take `CN(C)Cc1c[nH]c2ccccc12` [Compound 9, Gramine]: in assay [1], the “Effect on AMPK phosphorylation” value is reported as “elevated”. Moreover, the IC50 (in general, the midpoint of a concentration-inhibition curve) was 9.6 ± 0.9 µM in assay [2] and 0.1 ± 0.1 µM in assay [3].
In the same order, the values of `COc1cc(C[C@H]2COC(=O)[C@@H]2Cc2ccc(O)c(OC)c2)ccc1O` [Compound 3, Matairesinol] are “elevated”, 1.8 ± 0.6 µM and over 10 µM.
On to `C=C1C(=O)O[C@H]2[C@H]1CC/C(C)=C/CC[C@@]1(C)O[C@@H]21` [Compound 7, Parthenolide], for which the “Effect on AMPK phosphorylation” value in assay [1] is “no effect”. In addition, the IC50 in assay [2] is over 10 µM; in assay [3] it was 2.5 ± 0.4 µM.
In the same order, the values of `COc1ccc(C[C@H]2COC(=O)[C@@H]2Cc2ccc(O[C@@H]3O[C@H](CO)[C@@H](O)[C@H](O)[C@H]3O)c(OC)c2)cc1OC` [Compound 1, Arctiin] are “elevated”, 3.2 ± 0.3 µM and over 10 µM.
On the same counts, the results for `COc1cc2c(c(OC)c1OC)-c1c(cc(OC)c(OC)c1OC)C[C@H](C)[C@H](C)C2` [Compound 4, Deoxyschizandrin] are “decreased”, over 10 µM and 5.5 ± 0.6 µM.
